In PMC7468108 (Communications Biology, 2020):

How the values were obtained:
[1] = target: T1, pre-formed fibrils of hIAPP (Homo sapiens, UniProt P10997); assay: ThT-binding assay, disaggregation of pre-formed hIAPP fibrils; type: biochemical; conditions: for % amyloid of hIAPP in absence or presence of inhibitors: hIAPP 10 µM; for Normalized ThT fluorescence kinetics: hIAPP (10 µM) : molecule 1:5
T1 construct: hIAPP is a 37-amino acid neuroendocrine peptide hormone; purchased Peptide 2.0 (USA)
T1 sequence (P10997 34-70 limits assumed): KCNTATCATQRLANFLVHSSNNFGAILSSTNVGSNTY
Procedure: For efficient treatment of proteinopathies it may be advantageous to disassemble amyloid aggregates/fibrils which are usually already present at the time of diagnosis[75]–[77]. […] Then, various doses of the hybrid molecules were added to the pre-formed fibrils and the mixtures were incubated for additional 10 h. The process of disaggregation was monitored by ThT-binding assay, CD spectroscopy, TEM and Congo red staining (Fig. 5).
The experiment was performed according to the previous report. […] Kinetics fluorescence data were collected at 37 °C in triplicate using Infinite M200 microplate reader (Tecan, Switzerland), with measurements acquired at 15 min intervals. Excitation and emission wavelengths were set at 440 nm and 485 nm, respectively.

[2] = target: T2, Aβ42 (Homo sapiens, UniProt P05067); assay: Congo red birefringence of Aβ42 fibrils formed with the tested molecules; conditions: 5-fold excess of compound
T2 construct: purchased rPeptide (USA)
From the text: These fibrils also generated the amyloid specific gold-green birefringence upon staining with Congo red (Fig. 3, bottom panel and Supplementary Fig. 6)[74].

[3] = target: T3, hIAPP (Homo sapiens, UniProt P10997); assay: CD spectroscopy of hIAPP aggregated with the tested molecules; conditions: increasing doses up to 5-fold molar excess
T3 construct: hIAPP is a 37-amino acid neuroendocrine peptide hormone; purchased Peptide 2.0 (USA)
T3 sequence (P10997 34-70 limits assumed): T1 sequence (P10997 34-70 limits assumed)
Procedure: CD analysis was performed also for hIAPP (Fig. 2f and Supplementary Fig. 5). […] With different degrees of effectiveness, the presence of all tested hybrid molecules caused a reduction of the intensity of the CD signal, indicating an overall lower of β-sheet content of hIAPP (Fig. 2f and Supplementary Fig. 5).
The blank was subtracted from the acquired CD spectra. For the CD study in the presence of the tryptophan-galacosylamine molecules, the spectra of hybrid molecules were also recorded separately and subtracted from the respective sample spectra. The normalized data were plotted using Origin pro 2015 software.

[4] = target: T3, hIAPP; assay: Congo red birefringence of hIAPP fibrils formed with the tested molecules; conditions: 5-fold molar excess of compound
Procedure: When hIAPP was incubated with 5-fold molar excess of the hybrid molecules, no typical fibrillar assemblies were observed, rather some amorphous aggregates of different sizes were detected (Fig. 4, upper panel).

T2 sequence (P05067 672-713 limits assumed): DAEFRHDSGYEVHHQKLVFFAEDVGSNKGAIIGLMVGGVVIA

Question: For NC(Cc1c[nH]c2ccccc12)C(=O)NC(Cc1c[nH]c2ccccc12)C(=O)O (centres unmarked) [WW], which “increase of ThT signal of pre-formed hIAPP fibrils” value ([1]; compound added to pre-formed fibrils) is on record?
Answer: The value was 20%.

Question: What about the “% amyloid of hIAPP in absence or presence of inhibitors” value (“% amyloid of hIAPP … of inhibitors” for short) ([1]; molar ratio hIAPP:tested molecule 1:1) of the same compound?
Answer: Its value is 112.662%.

Question: What about the “% amyloid of hIAPP … of inhibitors” value ([1]; molar ratio hIAPP:tested molecule 1:5) of the same compound?
Answer: The value was 117.610%.

Question: What about the “% amyloid of hIAPP … of inhibitors” value ([1]; molar ratio hIAPP:tested molecule 5:1) of the same compound?
Answer: The value was 104.704%.

Question: And the “Normalized ThT fluorescence kinetics” value ([1]; time 10.25 h)?
Answer: Its value is 100.289.

Question: What about the “Normalized ThT fluorescence kinetics” value ([1]; time 10.5 h) of the same compound?
Answer: The value was 101.480.

Question: And the “Normalized ThT fluorescence kinetics” value ([1]; time 10.75 h)?
Answer: The value was 103.392.

Question: What about the “Normalized ThT fluorescence kinetics” value ([1]; time 11 h) of the same compound?
Answer: The value was 104.551.

Question: And the “Normalized ThT fluorescence kinetics” value ([1]; time 11.25 h)?
Answer: Its value is 105.696.

Question: What about the “Normalized ThT fluorescence kinetics” value ([1]; time 11.5 h) of the same compound?
Answer: The value was 107.934.

Question: And the “Normalized ThT fluorescence kinetics” value ([1]; time 11.75 h)?
Answer: Its value is 110.096.

Question: And the “Normalized ThT fluorescence kinetics” value ([1]; time 12 h)?
Answer: Its value is 110.792.

Question: What about the “Normalized ThT fluorescence kinetics” value ([1]; time 12.25 h) of the same compound?
Answer: Its value is 111.709.

Question: What about the “Normalized ThT fluorescence kinetics” value ([1]; time 12.5 h) of the same compound?
Answer: The value was 113.122.

Question: What about the “Normalized ThT fluorescence kinetics” value ([1]; time 12.75 h) of the same compound?
Answer: The value was 114.844.

Question: And the “Normalized ThT fluorescence kinetics” value ([1]; time 13 h)?
Answer: Its value is 115.638.

Question: And the “Normalized ThT fluorescence kinetics” value ([1]; time 13.25 h)?
Answer: Its value is 116.172.

Question: What about the “Normalized ThT fluorescence kinetics” value ([1]; time 13.5 h) of the same compound?
Answer: Its value is 117.523.

Question: And the “Normalized ThT fluorescence kinetics” value ([1]; time 13.75 h)?
Answer: The value was 117.888.

Question: What about the “Normalized ThT fluorescence kinetics” value ([1]; time 14 h) of the same compound?
Answer: The value was 118.165.

Question: What about the “Normalized ThT fluorescence kinetics” value ([1]; time 14.25 h) of the same compound?
Answer: The value was 118.126.

Question: And the “Normalized ThT fluorescence kinetics” value ([1]; time 14.5 h)?
Answer: Its value is 117.561.

Question: What about the “Normalized ThT fluorescence kinetics” value ([1]; time 14.75 h) of the same compound?
Answer: The value was 117.932.

Question: And the “Normalized ThT fluorescence kinetics” value ([1]; time 15 h)?
Answer: Its value is 118.466.

Question: And the “Normalized ThT fluorescence kinetics” value ([1]; time 15.25 h)?
Answer: Its value is 118.713.

Question: What about the “Normalized ThT fluorescence kinetics” value ([1]; time 15.5 h) of the same compound?
Answer: The value was 118.486.

Question: And the “Normalized ThT fluorescence kinetics” value ([1]; time 15.75 h)?
Answer: The value was 118.695.

Question: And the “Normalized ThT fluorescence kinetics” value ([1]; time 16 h)?
Answer: Its value is 118.857.

Question: And the “Normalized ThT fluorescence kinetics” value ([1]; time 16.25 h)?
Answer: Its value is 118.835.

Question: What about the “Normalized ThT fluorescence kinetics” value ([1]; time 16.5 h) of the same compound?
Answer: Its value is 118.502.

Question: And the “Normalized ThT fluorescence kinetics” value ([1]; time 16.75 h)?
Answer: Its value is 118.398.

Question: What about the “Normalized ThT fluorescence kinetics” value ([1]; time 17 h) of the same compound?
Answer: Its value is 118.694.

Question: And the “Normalized ThT fluorescence kinetics” value ([1]; time 17.25 h)?
Answer: Its value is 118.398.

Question: What about the “Normalized ThT fluorescence kinetics” value ([1]; time 17.5 h) of the same compound?
Answer: The value was 118.456.

Question: And the “Normalized ThT fluorescence kinetics” value ([1]; time 17.75 h)?
Answer: The value was 118.427.

Question: And the “Normalized ThT fluorescence kinetics” value ([1]; time 18 h)?
Answer: The value was 117.817.

Question: And the “Normalized ThT fluorescence kinetics” value ([1]; time 18.25 h)?
Answer: Its value is 117.835.

Question: And the “Normalized ThT fluorescence kinetics” value ([1]; time 18.5 h)?
Answer: Its value is 117.859.

Question: What about the “Normalized ThT fluorescence kinetics” value ([1]; time 18.75 h) of the same compound?
Answer: The value was 117.995.

Question: And the “Normalized ThT fluorescence kinetics” value ([1]; time 19 h)?
Answer: The value was 117.576.

Question: What about the “Normalized ThT fluorescence kinetics” value ([1]; time 19.25 h) of the same compound?
Answer: The value was 117.741.

Question: What about the “Normalized ThT fluorescence kinetics” value ([1]; time 19.5 h) of the same compound?
Answer: Its value is 118.044.

Question: What about the “Normalized ThT fluorescence kinetics” value ([1]; time 19.75 h) of the same compound?
Answer: Its value is 117.625.

Question: What about the “Normalized ThT fluorescence kinetics” value ([1]; time 20 h) of the same compound?
Answer: Its value is 117.610.

Question: And the “Congo red birefringence of Aβ42, in words” value [2]?
Answer: Its value is “intense gold-green birefringence”.

Question: And the “effect on hIAPP secondary structure (CD), in words” value [3]?
Answer: The value was “substantial effect”.

Question: And the “Congo red birefringence of hIAPP, in words” value [4]?
Answer: The value was “clear gold-green birefringence”.
